These are literature values, as cited in patent US20200197351A1, “TRIVALENT AND DIVALENT CATIONS AS ADMINISTRABLE AGENTS FOR INCREASED PROCESSIVITY AND IMPROVED FIDELITY OF REVERSE TRANSCRIPTASE IN TELOMERASE AND IN NUCLEIC ACID POLYMERASES” (priority 2018, published 2020).

The conditions of this data set: detailed testing in mammals.

Consider `[Sc]` [Scandium], for which the toxicity entry is “little or no toxicity”.
